Results published in ChEMBL document CHEMBL5291721, “A preclinical secondary pharmacology resource illuminates target-adverse drug reaction associations of marketed drugs” (Nat Commun, 2023).

How the values were obtained:
[1] = biological target: T1, 5-hydroxytryptamine receptor 3A (Homo sapiens, UniProt P46098); type: functional
T1 sequence (P46098 whole entry): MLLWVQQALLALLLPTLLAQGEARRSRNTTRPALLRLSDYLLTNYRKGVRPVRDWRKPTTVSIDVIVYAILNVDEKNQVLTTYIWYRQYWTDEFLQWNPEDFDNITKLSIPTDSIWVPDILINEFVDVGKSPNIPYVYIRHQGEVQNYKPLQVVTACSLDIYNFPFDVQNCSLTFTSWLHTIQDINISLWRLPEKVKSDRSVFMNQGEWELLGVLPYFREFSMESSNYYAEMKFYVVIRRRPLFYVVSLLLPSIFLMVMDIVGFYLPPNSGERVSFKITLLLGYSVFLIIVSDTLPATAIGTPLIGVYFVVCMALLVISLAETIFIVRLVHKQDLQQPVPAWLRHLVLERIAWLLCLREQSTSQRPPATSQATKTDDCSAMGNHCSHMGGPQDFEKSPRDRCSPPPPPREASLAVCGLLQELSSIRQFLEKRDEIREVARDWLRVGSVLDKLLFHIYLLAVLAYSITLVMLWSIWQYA

[2] = biological target: 5-hydroxytryptamine receptor 2B (Homo sapiens, UniProt P41595); type: functional, cell-based
[3] = biological target: 5-hydroxytryptamine receptor 2A (Homo sapiens, UniProt P28223); type: functional, cell-based
[4] = biological target: Muscarinic acetylcholine receptor M3 (Homo sapiens, UniProt P20309)
[5] = biological target: Glutamate receptor ionotropic, NMDA 1 (Rattus norvegicus, UniProt P35439)
[6] = biological target: T2, 5-hydroxytryptamine receptor 1A (Homo sapiens, UniProt P08908); type: functional, cell-based
T2 sequence (P08908 whole entry): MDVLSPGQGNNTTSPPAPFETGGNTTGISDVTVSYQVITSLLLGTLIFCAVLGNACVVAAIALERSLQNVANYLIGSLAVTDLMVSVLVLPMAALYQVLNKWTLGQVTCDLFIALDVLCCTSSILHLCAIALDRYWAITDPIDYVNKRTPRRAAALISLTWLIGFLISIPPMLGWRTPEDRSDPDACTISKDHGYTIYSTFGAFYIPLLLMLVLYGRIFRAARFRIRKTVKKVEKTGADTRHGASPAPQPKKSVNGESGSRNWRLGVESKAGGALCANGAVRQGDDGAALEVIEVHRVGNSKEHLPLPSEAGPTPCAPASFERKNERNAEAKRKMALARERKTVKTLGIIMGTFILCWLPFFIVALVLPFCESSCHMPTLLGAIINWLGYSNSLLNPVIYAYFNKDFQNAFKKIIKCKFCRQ

[7] = biological target: T3, Adenosine receptor A3 (Homo sapiens, UniProt P0DMS8)
T3 sequence (P0DMS8 whole entry): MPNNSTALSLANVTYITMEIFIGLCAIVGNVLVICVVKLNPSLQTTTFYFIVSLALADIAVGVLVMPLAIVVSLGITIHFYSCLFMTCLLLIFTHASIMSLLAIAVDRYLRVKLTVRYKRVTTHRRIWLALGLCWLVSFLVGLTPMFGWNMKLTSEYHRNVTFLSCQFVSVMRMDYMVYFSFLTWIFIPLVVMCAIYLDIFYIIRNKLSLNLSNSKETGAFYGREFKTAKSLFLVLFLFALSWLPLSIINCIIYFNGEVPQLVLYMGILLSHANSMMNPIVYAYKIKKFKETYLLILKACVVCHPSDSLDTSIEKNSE

[8] = biological target: Kappa-type opioid receptor (Homo sapiens, UniProt P41145)
[9] = biological target: Sodium-dependent dopamine transporter (Homo sapiens, UniProt Q01959)
[10] = biological target: Histamine H1 receptor (Homo sapiens, UniProt P35367)
[11] = biological target: Beta-2 adrenergic receptor (Homo sapiens, UniProt P07550); type: functional, cell-based
[12] = biological target: Histamine H3 receptor (Homo sapiens, UniProt Q9Y5N1)
[13] = biological target: D(3) dopamine receptor (Homo sapiens, UniProt P35462)
[14] = biological target: T4, Estrogen receptor (Homo sapiens, UniProt P03372)
T4 sequence (P03372 whole entry): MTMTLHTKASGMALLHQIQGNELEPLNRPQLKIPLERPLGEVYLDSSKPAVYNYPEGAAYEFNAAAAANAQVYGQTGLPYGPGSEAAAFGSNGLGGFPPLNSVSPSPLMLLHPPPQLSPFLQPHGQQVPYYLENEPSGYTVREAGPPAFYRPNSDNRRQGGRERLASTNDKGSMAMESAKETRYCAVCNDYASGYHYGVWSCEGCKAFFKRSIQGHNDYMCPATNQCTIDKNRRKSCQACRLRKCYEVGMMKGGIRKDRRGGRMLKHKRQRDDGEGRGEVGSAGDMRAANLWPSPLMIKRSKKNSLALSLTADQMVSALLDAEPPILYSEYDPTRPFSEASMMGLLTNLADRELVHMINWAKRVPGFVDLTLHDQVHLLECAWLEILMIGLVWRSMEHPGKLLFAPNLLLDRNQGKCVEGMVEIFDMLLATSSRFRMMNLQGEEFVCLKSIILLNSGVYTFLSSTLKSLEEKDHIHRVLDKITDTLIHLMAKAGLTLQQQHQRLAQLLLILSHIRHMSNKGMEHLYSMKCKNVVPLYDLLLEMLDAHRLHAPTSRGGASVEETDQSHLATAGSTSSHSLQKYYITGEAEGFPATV

Measured: AC50
Further: assay procedure not described here.

Chain of Beta-2 adrenergic receptor (P07550 whole entry): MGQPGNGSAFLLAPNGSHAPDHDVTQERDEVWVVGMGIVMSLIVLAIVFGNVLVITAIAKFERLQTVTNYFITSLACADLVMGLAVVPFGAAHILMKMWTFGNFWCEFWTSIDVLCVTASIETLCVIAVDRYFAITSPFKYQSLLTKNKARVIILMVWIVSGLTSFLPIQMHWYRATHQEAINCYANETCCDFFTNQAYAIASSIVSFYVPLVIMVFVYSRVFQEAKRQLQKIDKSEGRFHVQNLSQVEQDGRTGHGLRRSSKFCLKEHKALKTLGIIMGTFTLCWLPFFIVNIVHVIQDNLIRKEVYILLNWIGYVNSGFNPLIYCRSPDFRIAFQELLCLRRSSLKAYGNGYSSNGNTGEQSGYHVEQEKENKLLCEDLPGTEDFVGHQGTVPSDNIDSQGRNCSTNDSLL
Chain of 5-hydroxytryptamine receptor 2A (P28223 whole entry): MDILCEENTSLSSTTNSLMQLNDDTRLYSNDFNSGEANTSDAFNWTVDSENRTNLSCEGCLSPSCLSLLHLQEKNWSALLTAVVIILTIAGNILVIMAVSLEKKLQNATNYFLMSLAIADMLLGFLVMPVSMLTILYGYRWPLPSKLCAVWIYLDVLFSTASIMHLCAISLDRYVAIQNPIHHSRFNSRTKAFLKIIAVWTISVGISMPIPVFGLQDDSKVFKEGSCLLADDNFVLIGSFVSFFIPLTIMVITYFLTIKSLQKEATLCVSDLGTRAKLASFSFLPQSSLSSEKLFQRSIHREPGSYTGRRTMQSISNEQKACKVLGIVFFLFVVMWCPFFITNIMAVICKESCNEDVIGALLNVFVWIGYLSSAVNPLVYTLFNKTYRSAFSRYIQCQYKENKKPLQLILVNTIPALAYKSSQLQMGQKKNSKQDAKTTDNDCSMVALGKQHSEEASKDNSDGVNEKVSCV
Chain of Histamine H1 receptor (P35367 whole entry): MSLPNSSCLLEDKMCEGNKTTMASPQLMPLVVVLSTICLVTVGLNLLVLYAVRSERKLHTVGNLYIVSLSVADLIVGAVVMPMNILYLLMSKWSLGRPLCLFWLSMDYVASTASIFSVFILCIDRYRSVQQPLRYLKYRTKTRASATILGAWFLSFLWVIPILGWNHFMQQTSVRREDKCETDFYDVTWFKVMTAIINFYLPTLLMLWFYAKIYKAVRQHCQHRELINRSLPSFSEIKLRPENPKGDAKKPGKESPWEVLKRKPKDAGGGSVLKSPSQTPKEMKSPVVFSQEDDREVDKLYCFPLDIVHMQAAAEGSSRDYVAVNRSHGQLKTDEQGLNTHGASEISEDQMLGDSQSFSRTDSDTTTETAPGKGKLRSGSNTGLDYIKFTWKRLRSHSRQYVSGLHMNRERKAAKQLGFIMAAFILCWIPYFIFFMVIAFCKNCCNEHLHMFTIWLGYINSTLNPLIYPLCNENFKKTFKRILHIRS
Chain of Muscarinic acetylcholine receptor M3 (P20309 whole entry): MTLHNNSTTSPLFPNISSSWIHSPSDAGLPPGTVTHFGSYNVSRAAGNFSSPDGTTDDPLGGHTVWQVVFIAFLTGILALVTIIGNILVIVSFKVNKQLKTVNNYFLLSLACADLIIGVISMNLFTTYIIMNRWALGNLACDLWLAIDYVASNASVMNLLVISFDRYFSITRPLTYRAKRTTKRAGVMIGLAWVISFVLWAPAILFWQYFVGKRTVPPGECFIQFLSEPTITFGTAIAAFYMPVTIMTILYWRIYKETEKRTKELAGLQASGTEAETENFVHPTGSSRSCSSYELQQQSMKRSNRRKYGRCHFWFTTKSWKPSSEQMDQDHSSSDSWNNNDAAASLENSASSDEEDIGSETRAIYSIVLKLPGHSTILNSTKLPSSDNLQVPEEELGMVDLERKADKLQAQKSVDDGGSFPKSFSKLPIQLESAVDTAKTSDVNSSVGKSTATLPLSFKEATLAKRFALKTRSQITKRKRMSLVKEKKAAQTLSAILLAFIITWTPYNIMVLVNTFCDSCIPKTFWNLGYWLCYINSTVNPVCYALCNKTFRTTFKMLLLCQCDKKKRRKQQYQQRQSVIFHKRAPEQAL
Chain of 5-hydroxytryptamine receptor 2B (P41595 whole entry): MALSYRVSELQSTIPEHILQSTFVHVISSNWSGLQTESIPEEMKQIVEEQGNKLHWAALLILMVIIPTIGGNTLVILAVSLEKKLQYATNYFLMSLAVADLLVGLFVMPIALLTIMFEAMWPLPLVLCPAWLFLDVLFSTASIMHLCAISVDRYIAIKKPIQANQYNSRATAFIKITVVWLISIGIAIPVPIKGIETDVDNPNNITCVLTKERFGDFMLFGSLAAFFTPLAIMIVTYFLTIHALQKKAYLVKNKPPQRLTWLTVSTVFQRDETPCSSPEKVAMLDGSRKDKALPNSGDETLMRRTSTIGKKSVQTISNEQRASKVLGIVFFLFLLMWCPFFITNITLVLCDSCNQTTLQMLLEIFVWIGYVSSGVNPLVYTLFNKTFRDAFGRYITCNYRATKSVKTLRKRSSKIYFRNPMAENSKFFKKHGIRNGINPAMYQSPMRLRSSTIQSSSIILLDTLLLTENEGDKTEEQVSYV
Chain of Kappa-type opioid receptor (P41145 whole entry): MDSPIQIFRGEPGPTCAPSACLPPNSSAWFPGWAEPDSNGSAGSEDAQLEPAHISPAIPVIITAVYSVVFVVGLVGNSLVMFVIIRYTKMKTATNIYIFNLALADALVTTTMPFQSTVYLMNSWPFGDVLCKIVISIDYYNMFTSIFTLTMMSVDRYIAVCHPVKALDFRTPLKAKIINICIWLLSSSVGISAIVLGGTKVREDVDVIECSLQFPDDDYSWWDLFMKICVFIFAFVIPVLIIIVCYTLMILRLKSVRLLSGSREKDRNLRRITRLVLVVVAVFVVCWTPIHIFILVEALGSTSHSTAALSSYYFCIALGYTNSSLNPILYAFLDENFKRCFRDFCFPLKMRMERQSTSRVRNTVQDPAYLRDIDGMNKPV
Chain of Histamine H3 receptor (Q9Y5N1 whole entry): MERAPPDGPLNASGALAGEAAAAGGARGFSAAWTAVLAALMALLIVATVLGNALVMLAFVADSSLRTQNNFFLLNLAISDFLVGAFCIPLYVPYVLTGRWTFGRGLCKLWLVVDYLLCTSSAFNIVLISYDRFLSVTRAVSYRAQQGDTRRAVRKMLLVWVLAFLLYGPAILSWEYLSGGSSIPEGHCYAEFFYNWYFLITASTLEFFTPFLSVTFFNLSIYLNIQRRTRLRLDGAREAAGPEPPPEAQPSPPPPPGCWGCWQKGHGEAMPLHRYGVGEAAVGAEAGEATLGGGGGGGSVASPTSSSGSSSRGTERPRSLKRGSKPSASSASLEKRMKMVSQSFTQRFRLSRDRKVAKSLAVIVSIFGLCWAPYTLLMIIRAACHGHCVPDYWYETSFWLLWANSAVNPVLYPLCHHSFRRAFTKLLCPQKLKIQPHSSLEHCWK
Chain of Sodium-dependent dopamine transporter (Q01959 whole entry): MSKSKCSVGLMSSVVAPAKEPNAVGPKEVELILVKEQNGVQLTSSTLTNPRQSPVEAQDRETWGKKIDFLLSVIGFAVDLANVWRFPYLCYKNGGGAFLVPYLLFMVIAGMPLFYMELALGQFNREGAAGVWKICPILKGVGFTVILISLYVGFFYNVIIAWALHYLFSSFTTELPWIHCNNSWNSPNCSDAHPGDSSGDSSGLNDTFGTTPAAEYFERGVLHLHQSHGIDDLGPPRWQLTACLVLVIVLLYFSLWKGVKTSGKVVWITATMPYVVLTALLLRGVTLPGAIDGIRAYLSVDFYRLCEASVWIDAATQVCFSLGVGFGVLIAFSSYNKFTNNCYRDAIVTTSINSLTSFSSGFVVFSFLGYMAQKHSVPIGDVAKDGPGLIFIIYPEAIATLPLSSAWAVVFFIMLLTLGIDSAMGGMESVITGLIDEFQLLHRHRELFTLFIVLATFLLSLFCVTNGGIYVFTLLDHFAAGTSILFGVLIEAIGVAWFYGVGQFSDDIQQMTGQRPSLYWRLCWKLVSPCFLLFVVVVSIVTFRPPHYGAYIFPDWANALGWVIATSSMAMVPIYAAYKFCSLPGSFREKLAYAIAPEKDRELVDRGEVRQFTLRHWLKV
Chain of D(3) dopamine receptor (P35462 whole entry): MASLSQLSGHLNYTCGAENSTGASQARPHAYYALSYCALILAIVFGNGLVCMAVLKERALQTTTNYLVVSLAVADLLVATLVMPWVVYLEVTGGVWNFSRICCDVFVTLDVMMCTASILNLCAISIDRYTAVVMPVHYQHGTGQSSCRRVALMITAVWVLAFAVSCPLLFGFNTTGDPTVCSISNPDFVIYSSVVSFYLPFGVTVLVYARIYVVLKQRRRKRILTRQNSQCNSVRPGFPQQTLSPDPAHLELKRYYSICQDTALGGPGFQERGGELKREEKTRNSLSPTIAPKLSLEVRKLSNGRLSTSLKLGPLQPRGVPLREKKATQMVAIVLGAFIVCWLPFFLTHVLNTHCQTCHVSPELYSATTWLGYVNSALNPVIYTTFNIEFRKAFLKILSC

C[N+]1(C)CCC(=C(c2ccccc2)c2ccccc2)CC1
0.19 µM: [4]
> 30 µM: [7]
29 µM: [2]
> 10 µM: [3] | [5] | [6] | [8] | [9]
2.9 µM: [10]
6.1 µM: [1]

CN(C)C/C=C/C(=O)Nc1cc2c(Nc3ccc(F)c(Cl)c3)ncnc2cc1O[C@H]1CCOC1 [AFATINIB]
23.2 µM: [9]
not listed: [13] | [14]
> 30 µM: all other assays above

Cc1ccccc1-n1c(CF)nc2ccc(N)cc2c1=O [AFLOQUALONE]
> 30 µM: [1] | [4] | [7] | [9] | [12]
not listed: [11] | [13] | [14]
> 10 µM: all other assays above

CC1=C(C(=O)OC(C)C)C(c2cccc([N+](=O)[O-])c2)C(C(=O)OC2CN(C(c3ccccc3)c3ccccc3)C2)=C(N)N1 (stereo not drawn) [AZELNIDIPINE]
2.2 µM: [7]
26 µM: [9]
not listed: [6] | [11] | [13] | [14]
> 30 µM: all other assays above

CC(Cc1cccc(C(F)(F)F)c1)NCCOC(=O)c1ccccc1 (stereo not drawn) [BENFLUOREX]
0.495 µM: [2]
13.5 µM: [10]
27 µM: [4]
28 µM: [7]
15 µM: [9]
> 30 µM: [3] | [5] | [11] | [8] | [12]

C/C=C(/C(=C/C)c1ccc(O)cc1)c1ccc(O)cc1 [DIENESTROL]
> 10 µM: [2] | [3] | [5] | [6] | [8] | [10]
> 30 µM: [1] | [4] | [9]
7.3 µM: [7]

COc1ccc([C@@H]2CC(=O)c3c(O)cc(O)cc3O2)cc1O [HESPERETIN]
> 30 µM: [1] | [4]
not listed: [11] | [12] | [13] | [14]
> 10 µM: all other assays above

CNCCc1ccc(OC(=O)C(C)C)c(OC(=O)C(C)C)c1 [IBOPAMINE]
9.93 µM: [11]
not listed: [13] | [14]
> 30 µM: all other assays above

COC(=O)C1=C(C)NC(C)=C(C(=O)OCCN2CCN(C(c3ccccc3)c3ccccc3)CC2)C1c1cccc([N+](=O)[O-])c1 (stereo not drawn) [MANIDIPINE 6300]
23 µM: [9]
3.7 µM: [10]
7.9 µM: [8]
3.8 µM: [7]
not listed: [13] | [14]
> 30 µM: all other assays above

C=C1c2cccc(O)c2C(=O)C2=C(O)[C@]3(O)C(=O)C(C(N)=O)=C(O)[C@@H](N(C)C)[C@@H]3[C@@H](O)[C@H]12 [METHACYCLINE]
> 30 µM: [1] | [4] | [7]
not listed: [11] | [12] | [13] | [14]
> 10 µM: all other assays above

OC[C@H]1O[C@@H](n2cnc3c2NC=NC[C@H]3O)C[C@@H]1O [PENTOSTATIN]
3.6 µM: [7]
not listed: [13] | [14]
> 30 µM: all other assays above

Cc1cccc(C)c1NC(=O)CC12CCCN1CCC2 [PILSICAINIDE]
not listed: [6] | [11] | [13] | [14]
> 30 µM: all other assays above

O=C1OC(OC(=O)c2cccnc2Nc2cccc(C(F)(F)F)c2)c2ccccc21 (stereo not drawn) [TALNIFLUMATE]
not listed: [13] | [14]
> 30 µM: all other assays above

O=S1(=O)CCN(CN2CCS(=O)(=O)NC2)CN1 [TAUROLIDINE]
4.6 µM: [10]
not listed: [2] | [6] | [12]
> 30 µM: all other assays above

C[C@]12C=CC(=O)C=C1CC[C@@H]1[C@@H]2CC[C@]2(C)OC(=O)CC[C@@H]12 [TESTOLACTONE]
> 30 µM: [1] | [2] | [3] | [4] | [11]
not listed: [12] | [13] | [14]
> 10 µM: all other assays above

CCOC(=O)c1c(CSc2ccccc2)n(C)c2cc(Br)c(O)c(CN(C)C)c12 [UMIFENOVIR]
30 µM: [10]
9.1 µM: [9]
not listed: [6] | [11] | [13] | [14]
> 30 µM: all other assays above
